The results in this text go back to PubChem BioAssay AID493191 (Broad Institute, 2011).

Structures are written as SMILES.

The subject of this experiment is MALME3 melanoma viability, CellTiter-Glo luminescence, 24 h. The experiment can be described thus: MALME3 melanoma cell viability loss, dose response, orthogonal assay for MITF inhibitor project, CellTiter-Glo, cherry-picked (AID 493191). For orientation: In ATP-based viability assays light output follows the ATP content of the culture.
Usually AC50 stands for the concentration giving half of the maximal activity seen. Take `CCOc1ccc2nc(NC3=NC(c4ccc(OC)cc4)CC(=O)N3)nc(C)c2c1` (centres undefined): the AC50 is 24.6 µM. Under `N=c1n(CC(=O)c2ccc([N+](=O)[O-])cc2)c2ccccc2n1Cc1ccc(Cl)cc1` stands 17.2 µM; under `COc1ccc(N(Cc2cc(=O)[nH]c3ccccc23)C(=O)CCl)cc1`, 15.8 µM. For `O=C(Nc1ccc2oc(-c3cccnc3)nc2c1)c1ccc([N+](=O)[O-])o1`, the AC50 was 25.9 µM. Under `CCN1CCN(C2=C(NS(=O)(=O)c3ccc(C)cc3)C(=O)c3ccccc3C2=O)CC1` stands 11.9 µM; under `Nc1nc2ccccc2n1/N=C/c1ccc([N+](=O)[O-])s1`, 16.3 µM. As to `CC(C)Oc1ccc(C(CCN)C2CCCCC2)cc1` (centres undefined), the AC50 is 14.6 µM. Under `O=C(CCl)N1CCN(S(=O)(=O)c2ccc3c(c2)CCC3)CC1` stands 25.5 µM.

As for `Cc1ccc(NC2=C(Cl)C(=O)c3ccccc3C2=O)cc1`, the AC50 was 6.96 µM. Under `Cc1ccc(S(=O)(=O)N2CCCCC2)cc1NC(=O)Cn1ncc(Cl)c(Cl)c1=O` stands 6.08 µM; under `CC(C)C(=O)N1CCN(c2ccc(NC(=O)c3ccc([N+](=O)[O-])o3)cc2)CC1`, 12.8 µM. Regarding `CCN1c2ccccc2NC2N=C(OC)C(c3ccccc3)C21` (centres undefined), the AC50 is 7.13 µM.

On to `O=C1Nc2ccc(Br)cc2/C1=C/C(=O)c1ccc2c(c1)OCO2`, for which the AC50 is 32 µM. Under `O=C(CNc1cccc2ccccc12)N/N=C/c1ccc([N+](=O)[O-])o1` stands 16.3 µM. Take `CC1CCC/C=C/C(=O)c2c(O)cc(O)cc2CC(=O)O1` (centres undefined): the AC50 is 21.2 µM. Under `Cc1cccc(NC(=O)CNC(=O)Cn2ncc(Cl)c(Cl)c2=O)c1C` stands 14.1 µM; under `CCNC1=C(Cl)C(=O)c2ccccc2C1=O`, 15.3 µM.

For `CN1CCN(C2=C(NS(=O)(=O)c3cccs3)C(=O)c3ccccc3C2=O)CC1`, the AC50 is 14.6 µM.

For the compound `O=C1c2cc([N+](=O)[O-])cc3cc([N+](=O)[O-])cc(c23)C(=O)N1c1ccccn1`, the AC50 is 21.9 µM. Turning to `N=c1n(CCN2CCCC2)c2ccccc2n1CC(O)c1ccc(Cl)c(Cl)c1` (centres undefined), the concentration at half-maximal activity (AC50) is 22.5 µM. In the case of `Cc1ccc2nc(N(CCCN(C)C)C(=O)c3ccc4c(c3)CCCC4)sc2c1`, the AC50 was 21.6 µM. `O=C(NC1CCCC(C(F)(F)F)C1)c1ccc([N+](=O)[O-])o1` (centres undefined): the AC50 was 20.8 µM. Under `CCOc1ccc(-n2c(C)cc(C(=O)CCl)c2C)cc1` stands 19.9 µM; under `O=c1c(Cl)c(Cl)cnn1Cc1ccc(F)cc1`, 31.6 µM. Under `C=Cc1ncc(OC)c2c1[nH]c1ccccc12` stands 31.5 µM. Under `C/C(=N/NC(=O)C(O)(c1ccccc1)c1ccccc1)c1ccc([N+](=O)[O-])o1` stands 34.1 µM; under `O=C(CCl)Nc1cccc(Oc2ccccc2)c1`, 28.7 µM. With `CC(C)C(CCNC1CCN(C)CC1)c1ccc(Cl)cc1` (centres undefined), the AC50 is 24.3 µM. Under `COc1ccc(C(=O)/C=C/C(=O)N(CC(=O)NC2CCCCC2)Cc2ccc(F)cc2)c(O)c1` stands 7.85 µM. Under `O=C(CCl)N(c1ccccc1)C1CCCCC1` stands 20.1 µM. Consider `O=C(Nc1nc(-c2ccccn2)cs1)c1ccc([N+](=O)[O-])o1`, for which the AC50 is 28.5 µM. Turning to `O=C1C(Nc2ccccc2)=C(N2CCCCC2)C(=O)c2ccccc21`, the AC50 is 18.2 µM. For `CC(C)(C)C(=O)Cn1ncc(Br)c(Br)c1=O`, the AC50 was 17.7 µM. Under `O=C(/C=C/c1ccc([N+](=O)[O-])s1)N1CCCCC1` stands 30.7 µM. Under `COc1ccccc1CNCC(O)Cn1c2ccccc2c2ccccc21` (centres undefined) stands 20 µM. Under `O=C(Cc1ccc2c(c1)OCO2)NN=Cc1ccc([N+](=O)[O-])o1` stands 19.1 µM; under `Cc1ccc(C)c(NC(=O)/C(C#N)=C/c2cn(CC(=O)NCc3ccco3)c3ccccc23)c1`, 18.6 µM. In the case of `Cc1cc2ncn(/N=C/c3ccc([N+](=O)[O-])o3)c2cc1C`, the AC50 is 15.9 µM. `Cc1ccc(C(=O)N/N=C/c2ccc([N+](=O)[O-])s2)cc1`: the AC50 is 22.6 µM.
